From ChEMBL document CHEMBL3804831, “N-Acyl Dehydrotyrosines, Tyrosinase Inhibitors from the Marine Bacterium Thalassotalea sp. PP2-459” (J Nat Prod, 2016)
Activity calls are given as the source filed them. The rule behind the calls is not given here.

Experiments:
Tyrosinase = molecular target: T1, Tyrosinase (Agaricus bisporus, UniProt O42713)
T1 sequence (O42713 whole entry): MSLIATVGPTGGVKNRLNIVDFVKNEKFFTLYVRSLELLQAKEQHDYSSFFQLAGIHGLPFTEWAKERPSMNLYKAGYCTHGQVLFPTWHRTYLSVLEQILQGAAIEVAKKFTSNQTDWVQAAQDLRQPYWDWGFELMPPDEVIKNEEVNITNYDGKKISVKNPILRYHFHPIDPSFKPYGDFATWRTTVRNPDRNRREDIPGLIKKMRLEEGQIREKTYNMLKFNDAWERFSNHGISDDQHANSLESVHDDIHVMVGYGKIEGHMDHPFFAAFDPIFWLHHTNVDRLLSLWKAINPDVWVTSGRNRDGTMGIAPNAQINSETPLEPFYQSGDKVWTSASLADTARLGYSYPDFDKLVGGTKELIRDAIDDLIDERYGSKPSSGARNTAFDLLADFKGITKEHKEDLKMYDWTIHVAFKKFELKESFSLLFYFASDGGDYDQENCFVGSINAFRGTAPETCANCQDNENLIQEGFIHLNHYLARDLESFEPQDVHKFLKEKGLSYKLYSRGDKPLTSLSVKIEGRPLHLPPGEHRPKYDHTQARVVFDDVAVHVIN
Description: Inhibition of mushroom tyrosinase using L-tyrosine as a substrate after 30 mins by spectrophotometric method

[1] = molecular target: T2, Tyrosinase (Agaricus bisporus) (UniProt O42713); test: Inhibition of mushroom tyrosinase at 1 mM using L-tyrosine as a substrate after 30 mins by spectrophotometric method
T2 sequence (whole entry): T1 sequence (O42713 whole entry)

Row | Compound | IC50 (Tyrosinase) [µM] | inhibition [1]
1 | CCCCCCCCC(=O)N/C(=C\c1ccc(O)cc1)C(=O)O | 280 | 
2 | CCCCCCCCCC(=O)N/C(=C\c1ccc(O)cc1)C(=O)O | 130 | 
3 | CCCCCCCCCC(=O)N/C(=C\c1ccc(O)cc1)C(N)=O |  | inactive
4 | CC(C)CCCCCCC(=O)N/C(=C\c1ccc(O)cc1)C(=O)O | 470 | 
5 | CC(C)CCCCCCC(=O)N/C(=C\c1ccc(O)cc1)C(N)=O |  | inactive
